The source of these data is PMC5923425, “Structural analysis of human ARS2 as a platform for co-transcriptional RNA sorting” (Nature Communications, 2018).

Experiment [1] deals with T1, NCBP3 (full-length, residues 1–620) (Homo sapiens, UniProt Q53F19).
T1 construct: full-length residues 1-620, pFASTBac HTb, expressed in High Five insect cells, N-terminal His6 tag cleaved with TEV
T1 sequence (Q53F19 1-620): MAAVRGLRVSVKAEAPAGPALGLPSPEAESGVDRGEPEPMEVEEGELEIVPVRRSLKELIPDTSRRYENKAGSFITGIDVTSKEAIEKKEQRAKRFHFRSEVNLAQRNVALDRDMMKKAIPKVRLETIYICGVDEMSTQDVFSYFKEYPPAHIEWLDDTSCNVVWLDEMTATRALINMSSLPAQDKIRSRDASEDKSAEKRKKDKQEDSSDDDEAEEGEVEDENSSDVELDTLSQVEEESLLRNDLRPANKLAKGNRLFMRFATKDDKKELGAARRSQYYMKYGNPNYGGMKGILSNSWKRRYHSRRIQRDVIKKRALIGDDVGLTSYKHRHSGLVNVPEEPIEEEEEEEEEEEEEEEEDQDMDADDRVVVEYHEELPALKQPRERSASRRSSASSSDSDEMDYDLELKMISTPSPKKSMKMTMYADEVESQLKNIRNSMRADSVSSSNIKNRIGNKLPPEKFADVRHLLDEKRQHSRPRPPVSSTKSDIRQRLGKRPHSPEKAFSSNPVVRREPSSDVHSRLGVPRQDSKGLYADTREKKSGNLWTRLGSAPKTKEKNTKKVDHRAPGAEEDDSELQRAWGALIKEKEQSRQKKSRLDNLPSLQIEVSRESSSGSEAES
The experiment in a line: isothermal titration calorimetry. Format: binding. An excerpt: isothermal titration calorimetry on NCBP3 (full-length, residues 1–620)

Another experiment concerns the target T2, CBP20 (Homo sapiens, UniProt P52298).
T2 construct: gene NCBP2; CBP20 alone, recombinant, purified as described previously
T2 sequence (P52298 2-156): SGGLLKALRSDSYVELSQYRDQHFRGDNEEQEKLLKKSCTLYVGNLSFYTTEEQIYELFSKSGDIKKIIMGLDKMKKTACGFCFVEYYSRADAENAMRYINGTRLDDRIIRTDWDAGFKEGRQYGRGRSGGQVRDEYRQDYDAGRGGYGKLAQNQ
In words: isothermal titration calorimetry. It is filed as binding. As to conditions: 250 mM NaCl, 20 mM HEPES, 2 mM TCEP, pH 7.8, 25 °C; CBP20 without CBP80. An excerpt:
isothermal titration calorimetry on CBP20

Another experiment has as its target T3, NCBP3/2xCBP80 (Homo sapiens, UniProt Q53F19).
T3 construct: full-length NCBP3 (insect cells, tag cleaved) with CBP80 added (2x, apparently molar excess)
T3 sequence (Q53F19 1-620): T1 sequence (Q53F19 1-620)
T3 sequence (Q09161 20-790 partner limits assumed): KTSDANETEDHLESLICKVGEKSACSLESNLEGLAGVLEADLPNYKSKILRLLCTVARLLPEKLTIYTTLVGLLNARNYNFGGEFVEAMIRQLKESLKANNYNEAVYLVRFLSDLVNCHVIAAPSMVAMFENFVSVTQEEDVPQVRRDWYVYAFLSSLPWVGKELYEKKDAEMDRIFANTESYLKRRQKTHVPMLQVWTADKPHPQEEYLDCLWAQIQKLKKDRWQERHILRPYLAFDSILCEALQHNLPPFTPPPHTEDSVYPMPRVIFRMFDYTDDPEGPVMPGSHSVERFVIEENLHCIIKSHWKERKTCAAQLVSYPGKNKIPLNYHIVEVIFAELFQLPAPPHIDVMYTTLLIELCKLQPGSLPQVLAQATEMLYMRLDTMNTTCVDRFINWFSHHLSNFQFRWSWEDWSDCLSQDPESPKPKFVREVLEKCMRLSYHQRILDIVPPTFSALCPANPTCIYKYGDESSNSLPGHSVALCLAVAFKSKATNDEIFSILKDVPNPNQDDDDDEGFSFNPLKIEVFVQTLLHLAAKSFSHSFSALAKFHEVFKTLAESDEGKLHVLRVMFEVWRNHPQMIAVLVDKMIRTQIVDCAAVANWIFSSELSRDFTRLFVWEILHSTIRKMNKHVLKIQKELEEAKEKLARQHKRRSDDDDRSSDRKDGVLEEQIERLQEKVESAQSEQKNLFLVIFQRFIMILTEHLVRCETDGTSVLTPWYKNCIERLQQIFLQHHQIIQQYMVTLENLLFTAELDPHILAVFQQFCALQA
The experiment in a line: isothermal titration calorimetry. Format: binding. From the text: isothermal titration calorimetry on NCBP3/2xCBP80

A further experiment deals with T4, NCBP3 1–282 (Homo sapiens, UniProt Q53F19).
T4 construct: N-terminal region with putative RRM domain, residues 1-282, pETM11, E. coli Rosetta 2, His6 tag cleaved with TEV
T4 sequence (Q53F19 1-282): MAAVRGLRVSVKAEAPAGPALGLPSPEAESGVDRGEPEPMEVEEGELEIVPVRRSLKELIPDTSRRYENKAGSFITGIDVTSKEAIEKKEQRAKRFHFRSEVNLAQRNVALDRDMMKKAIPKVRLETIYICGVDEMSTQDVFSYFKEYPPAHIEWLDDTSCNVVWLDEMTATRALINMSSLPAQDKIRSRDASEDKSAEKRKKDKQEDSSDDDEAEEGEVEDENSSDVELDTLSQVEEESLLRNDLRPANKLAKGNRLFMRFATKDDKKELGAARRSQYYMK
The experiment in a line: isothermal titration calorimetry. It is filed as binding. An excerpt: isothermal titration calorimetry on NCBP3 1–282

A further experiment has as its target T5, CBP20/2xCBP80 (CBC) (Homo sapiens, UniProt P52298).
T5 construct: gene NCBP2; CBP20-CBP80 heterodimer, CBP80 added 2x (apparently molar excess)
T5 sequence (P52298 2-156): T2 sequence (P52298 2-156)
T5 sequence (Q09161 20-790 partner limits assumed): T3 sequence (Q09161 20-790 partner limits assumed)
In words: isothermal titration calorimetry. It is filed as binding. As to conditions: 250 mM NaCl, 20 mM HEPES, 2 mM TCEP, pH 7.8, 25 °C; CBP80 present (2x). An excerpt:
isothermal titration calorimetry on CBP20/2xCBP80 (CBC)

The target of a further experiment is T6, ARS2^147–871 (human, UniProt Q9BXP5-4 147-871).
T6 construct: human ARS2 (SRRT) isoform-e, 871 residues, residues 147-871, cloned into pETM11; also called hARS2; SRRT; source: E. coli Rosetta 2, purified (Ni-Sepharose, TEV cleavage, HiTrap Q, heparin if necessary, SEC); not shown: His6, N-terminal, cleaved
T6 sequence (looked up): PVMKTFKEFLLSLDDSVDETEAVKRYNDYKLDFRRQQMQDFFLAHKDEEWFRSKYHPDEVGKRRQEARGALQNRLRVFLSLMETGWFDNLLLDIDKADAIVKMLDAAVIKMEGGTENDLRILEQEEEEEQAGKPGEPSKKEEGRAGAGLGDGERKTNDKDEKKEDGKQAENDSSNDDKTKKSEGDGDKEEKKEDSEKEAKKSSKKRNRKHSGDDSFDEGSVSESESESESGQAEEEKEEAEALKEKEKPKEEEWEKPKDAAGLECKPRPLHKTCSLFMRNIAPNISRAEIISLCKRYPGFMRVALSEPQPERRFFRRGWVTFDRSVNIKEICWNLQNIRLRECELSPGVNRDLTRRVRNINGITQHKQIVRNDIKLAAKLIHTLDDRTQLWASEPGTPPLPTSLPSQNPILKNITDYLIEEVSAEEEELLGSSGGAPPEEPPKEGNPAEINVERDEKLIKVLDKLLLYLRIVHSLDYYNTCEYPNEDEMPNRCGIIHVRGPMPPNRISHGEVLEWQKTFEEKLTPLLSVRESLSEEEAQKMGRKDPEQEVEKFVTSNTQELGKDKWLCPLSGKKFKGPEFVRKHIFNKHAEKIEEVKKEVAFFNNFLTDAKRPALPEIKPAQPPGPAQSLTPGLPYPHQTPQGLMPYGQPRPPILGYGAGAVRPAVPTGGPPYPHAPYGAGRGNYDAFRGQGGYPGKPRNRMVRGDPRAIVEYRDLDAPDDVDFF
The experiment in a line: pull-down; GST–FLASH 903–943 (or GST as control) immobilised on glutathione sepharose, incubated with purified ARS2 constructs 30 min at 10 °C; flow-through, wash and elution on Coomassie-stained SDS-PAGE. As to conditions: both partners purified.

Take `C[n+]1cn([C@@H]2O[C@H](COP(=O)(O)OP(=O)(O)OP(=O)(O)O)[C@@H](O)[C@H]2O)c2nc(N)[nH]c(=O)c21` [m^7GTP]: the Kd is 4.6 ± 1 µM in experiment [1]; 84 ± 4.2 µM on CBP20; 7.9 ± 0.9 µM at NCBP3/2xCBP80; 8.3 ± 3 µM at NCBP3 1–282; 0.37 ± 0.04 µM at CBP20/2xCBP80 (CBC).

B1: GST–FLASH^903–943 (domain or fragment, UniProt Q9UKL3 903-943, looked up)
chain: SDLNKENQKPIYKSDKCTEADTCKNSPLDELEEGEIRSDSE
notes: FLASH (FLICE-associated huge protein), residues 903-943, holds FARB; cloned into the GST-vector pETM30; source: E. coli, expressed and purified; immobilised on glutathione sepharose
For the molecule B1, the binding result with ARS2^147–871 is given as “binds”.
